Data: patent US8747810B2, “Compositions and methods for imaging tissues, organs and tumors” (President and Fellows of Harvard College, priority 2009, dated 2014)
Values joined by “and” are separate entries in the source; they are usually repeats but may differ in a detail not shown here. Identical values can stand only once. Each block holds one compound with its values, some of them ahead of it.

Key:
[1] = test system: B16F10 melanoma tumors; test: In vivo biodistribution of 99mTc complexes in C57B16 mice bearing B16F10 melanoma tumors; settings: for mel/blood: melanoma/blood ratio; for mel/liver: melanoma/liver ratio; for mel/lung: melanoma/lung ratio; for mel/spleen: melanoma/spleen ratio
Protocol: To study the tumor uptake of ^99mTc complexes, ^99mTc-Z2-^99mTc-Z4, in vivo biodistribution experiment at 1, 3, 6 hours post intra-venous injection of the ^99mTc-complex were carried out in C57B16 mice bearing B16F10 melanoma tumors. The biodistribution data including melanoma/nontumor (M/NT) ratios for selected organs are summarized in Table 2 as percentage injected dose per gram (% ID/g) (Table 2). […] This is due to washout from no-tumor organs and increased retention in the tumor.

[2] = test system: B16 melanoma nodules; test: In vivo biodistribution and tumor uptake of 99mTc complexes in C57B16 mice with B16 melanoma nodules; settings: for mel/blood: melanoma/blood ratio; for mel/liver: melanoma/liver ratio; for mel/lung: melanoma/lung ratio; for mel/spleen: melanoma/spleen ratio
Protocol: The biodistribution data including melanoma/nontumor (M/NT) ratios for selected organs, summarized in Table 1 as percentage injected dose per gram (% ID/g)
To study the tumor uptake of radiolabeled metal complexes, in vivo, biodistribution experiments at 1 h after their administration were carried out in C57B16 male mice with palpable B16 melanoma nodules.

[3] = 3 h postinjection, listed as 99mTc-Z2

Eyes ([1]; 1 h postinjection): 13.57 ± 2.1 % ID/g
blood ([1]; 1 h postinjection): 0.41 ± 0.08 % ID/g
brain ([1]; 1 h postinjection): 0.13 ± 0.03 % ID/g
heart ([1]; 1 h postinjection): 0.62 ± 0.10 % ID/g
kidney ([1]; 1 h postinjection): 3.50 ± 0.95 % ID/g
liver ([1]; 1 h postinjection): 10.28 ± 2.9 % ID/g
lung ([1]; 1 h postinjection): 1.29 ± 0.36 % ID/g
melanoma (tumor uptake) ([1]; 1 h postinjection): 8.52 ± 0.08 % ID/g
muscle ([1]; 1 h postinjection): 0.36 ± 0.06 % ID/g
spleen ([1]; 1 h postinjection): 0.90 ± 0.22 % ID/g
melanoma (tumor uptake) ([1]; 1 h postinjection, listed as 99mTc-Z2): 8.52 % ID/g
mel/blood ([1]; 1 h postinjection): 16.49 ± 6.7
mel/liver ([1]; 1 h postinjection): 0.64 ± 0.21
mel/lung ([1]; 1 h postinjection): 4.93 ± 1.13
mel/spleen ([1]; 1 h postinjection): 7.94 ± 2.79
Eyes ([1]; 3 h postinjection): 13.55 ± 2.49 % ID/g
blood ([1]; 3 h postinjection): 0.22 ± 0.02 % ID/g
brain ([1]; 3 h postinjection): 0.06 ± 0.01 % ID/g
heart ([1]; 3 h postinjection): 0.22 ± 0.02 % ID/g
kidney ([1]; 3 h postinjection): 1.64 ± 0.15 % ID/g
liver ([1]; 3 h postinjection): 3.32 ± 0.67 % ID/g
lung ([1]; 3 h postinjection): 0.49 ± 0.03 % ID/g
melanoma (tumor uptake) ([1]; 3 h postinjection): 7.56 ± 1.69 % ID/g
muscle ([1]; 3 h postinjection): 0.11 ± 0.01 % ID/g
spleen ([1]; 3 h postinjection): 0.93 ± 0.78 % ID/g
melanoma (tumor uptake) [1, 3]: 7.56 % ID/g
mel/blood ([1]; 3 h postinjection): 34.80 ± 10.2
mel/liver ([1]; 3 h postinjection): 2.29 ± 0.30
mel/liver [1, 3]: 2.29
mel/lung ([1]; 3 h postinjection): 15.48 ± 3.91
mel/spleen ([1]; 3 h postinjection): 17.28 ± 10.2
Eyes ([1]; 6 h postinjection): 8.89 ± 1.55 % ID/g
blood ([1]; 6 h postinjection): 0.12 ± 0.02 % ID/g
brain ([1]; 6 h postinjection): 0.03 ± 0.01 % ID/g
heart ([1]; 6 h postinjection): 0.10 ± 0.02 % ID/g
kidney ([1]; 6 h postinjection): 0.84 ± 0.08 % ID/g
liver ([1]; 6 h postinjection): 3.10 ± 0.31 % ID/g
lung ([1]; 6 h postinjection): 0.31 ± 0.03 % ID/g
melanoma (tumor uptake) ([1]; 6 h postinjection): 5.39 ± 0.36 % ID/g
muscle ([1]; 6 h postinjection): 0.04 ± 0.01 % ID/g
spleen ([1]; 6 h postinjection): 1.19 ± 0.6 % ID/g
melanoma (tumor uptake) ([1]; 6 h postinjection, listed as 99mTc-Z2): 3.71 % ID/g
mel/blood ([1]; 6 h postinjection): 43.14 ± 4.9
mel/liver ([1]; 6 h postinjection): 1.71 ± 0.13
mel/lung ([1]; 6 h postinjection): 16.9 ± 1.41
mel/spleen ([1]; 6 h postinjection): 5.10 ± 2.59
tumor retention (in words) ([1]; over time): significant tumor retention
Compound: O=C1C[S][99Tc-]23(=[O])[S]CC[N+]2(CCN2CCCCC2)CC[N]13 (stereo not shown) [Tc-Z2]

Eyes ([1]; 1 h postinjection): 6.72 ± 0.77 % ID/g
blood ([1]; 1 h postinjection): 0.33 ± 0.03 % ID/g
brain ([1]; 1 h postinjection): 0.16 ± 0.01 % ID/g
heart ([1]; 1 h postinjection): 0.59 ± 0.07 % ID/g
kidney ([1]; 1 h postinjection): 2.50 ± 0.32 % ID/g
liver ([1]; 1 h postinjection): 20.32 ± 1.0 % ID/g
lung ([1]; 1 h postinjection): 2.37 ± 0.17 % ID/g
melanoma (tumor uptake) ([1]; 1 h postinjection): 3.43 ± 0.70 % ID/g
muscle ([1]; 1 h postinjection): 0.63 ± 0.17 % ID/g
spleen ([1]; 1 h postinjection): 1.37 ± 0.19 % ID/g
mel/blood ([1]; 1 h postinjection): 10.50 ± 1.9
mel/liver ([1]; 1 h postinjection): 0.17 ± 0.03
mel/lung ([1]; 1 h postinjection): 1.45 ± 0.30
mel/spleen ([1]; 1 h postinjection): 2.49 ± 0.24
Eyes ([1]; 3 h postinjection): 7.19 ± 1.40 % ID/g
blood ([1]; 3 h postinjection): 0.34 ± 0.09 % ID/g
brain ([1]; 3 h postinjection): 0.18 ± 0.04 % ID/g
heart ([1]; 3 h postinjection): 0.63 ± 0.07 % ID/g
kidney ([1]; 3 h postinjection): 2.73 ± 0.76 % ID/g
liver ([1]; 3 h postinjection): 16.67 ± 3.8 % ID/g
lung ([1]; 3 h postinjection): 2.36 ± 0.54 % ID/g
melanoma (tumor uptake) ([1]; 3 h postinjection): 3.59 ± 1.76 % ID/g
muscle ([1]; 3 h postinjection): 0.70 ± 0.52 % ID/g
spleen ([1]; 3 h postinjection): 1.22 ± 0.42 % ID/g
mel/blood ([1]; 3 h postinjection): 9.22 ± 4.93
mel/liver ([1]; 3 h postinjection): 0.15 ± 0.09
mel/lung ([1]; 3 h postinjection): 1.30 ± 0.67
mel/spleen ([1]; 3 h postinjection): 2.57 ± 1.21
Eyes ([1]; 6 h postinjection): 7.01 ± 0.41 % ID/g
blood ([1]; 6 h postinjection): 0.14 ± 0.03 % ID/g
brain ([1]; 6 h postinjection): 0.02 ± 0.01 % ID/g
heart ([1]; 6 h postinjection): 0.25 ± 0.06 % ID/g
kidney ([1]; 6 h postinjection): 1.07 ± 0.17 % ID/g
liver ([1]; 6 h postinjection): 12.9 ± 1.72 % ID/g
lung ([1]; 6 h postinjection): 0.91 ± 0.24 % ID/g
melanoma (tumor uptake) ([1]; 6 h postinjection): 3.52 ± 0.88 % ID/g
muscle ([1]; 6 h postinjection): 0.09 ± 0.02 % ID/g
spleen ([1]; 6 h postinjection): 0.58 ± 0.20 % ID/g
mel/blood ([1]; 6 h postinjection): 24.95 ± 4.6
mel/liver ([1]; 6 h postinjection): 0.28 ± 0.08
mel/lung ([1]; 6 h postinjection): 3.99 ± 1.10
mel/spleen ([1]; 6 h postinjection): 6.44 ± 2.12
Compound: O=C1C[S][99Tc-]23(=[O])[S]CC[N+]2(CCCN2CCCCC2)CC[N]13 (stereo not shown) [Tc-Z4]

Eyes ([2]; 1 h postinjection): 15.42 ± 2.07 % ID/g
blood ([2]; 1 h postinjection): 1.05 ± 0.19 % ID/g
brain ([2]; 1 h postinjection): 0.24 ± 0.04 % ID/g
heart ([2]; 1 h postinjection): 1.34 ± 0.18 % ID/g
kidney ([2]; 1 h postinjection): 5.33 ± 1.10 % ID/g
liver ([2]; 1 h postinjection): 12.62 ± 1.80 % ID/g
lung ([2]; 1 h postinjection): 6.75 ± 0.57 % ID/g
melanoma (tumor uptake) ([2]; 1 h postinjection): 9.61 % ID/g and 9.61 ± 1.02 % ID/g
muscle ([2]; 1 h postinjection): 0.94 ± 0.14 % ID/g
spleen ([2]; 1 h postinjection): 3.00 ± 1.45 % ID/g
melanoma (tumor uptake) ([2]; 1 h postinjection, listed as Iso-[^99mTcOAADT]-(CH2)2-NEt2)): 9.61 % ID/g
mel/blood ([2]; 1 h postinjection): 14.71 and 14.71 ± 2.40
mel/liver ([2]; 1 h postinjection): 0.75 and 0.75 ± 0.11
mel/lung ([2]; 1 h postinjection): 1.43 and 1.43 ± 0.15
mel/spleen ([2]; 1 h postinjection): 3.65 and 3.65 ± 1.19
in vivo tumor uptake ([2]; 3 h after administration): 8.19 %ID/g
in vivo tumor uptake ([2]; 6 h after administration): 7.37 %ID/g
Eyes ([2]; 6 h postinjection): 11.09 ± 0.84 % ID/g
blood ([2]; 6 h postinjection): 0.25 ± 0.02 % ID/g
brain ([2]; 6 h postinjection): 0.05 ± 0.01 % ID/g
heart ([2]; 6 h postinjection): 0.18 ± 0.02 % ID/g
kidney ([2]; 6 h postinjection): 1.11 ± 0.13 % ID/g
liver ([2]; 6 h postinjection): 3.69 ± 0.48 % ID/g
lung ([2]; 6 h postinjection): 1.39 ± 0.41 % ID/g
melanoma (tumor uptake) ([2]; 6 h postinjection): 7.05 % ID/g and 7.05 ± 1.23 % ID/g
muscle ([2]; 6 h postinjection): 0.07 ± 0.01 % ID/g
spleen ([2]; 6 h postinjection): 0.78 ± 0.85 % ID/g
mel/blood ([2]; 6 h postinjection): 47.25 and 47.25 ± 7.32
mel/liver ([2]; 6 h postinjection): 2.00 and 2.00 ± 0.23
mel/lung ([2]; 6 h postinjection): 5.87 and 5.87 ± 1.79
mel/spleen ([2]; 6 h postinjection): 13.99 and 13.99 ± 5.17
Compound: CCN(CC)CC[N+]12CC[S][99Tc-]13(=[O])[S]CC(=O)[N]3CC2 (stereo not shown) [^99mTc-27, Iso-[^99mTcOAADT]-(CH2)2-NEt2)]

Eyes ([1]; 1 h postinjection): 4.85 ± 0.63 % ID/g
blood ([1]; 1 h postinjection): 0.35 ± 0.11 % ID/g
brain ([1]; 1 h postinjection): 0.08 ± 0.02 % ID/g
heart ([1]; 1 h postinjection): 0.49 ± 0.11 % ID/g
kidney ([1]; 1 h postinjection): 2.62 ± 1.50 % ID/g
liver ([1]; 1 h postinjection): 17.75 ± 2.56 % ID/g
lung ([1]; 1 h postinjection): 2.08 ± 0.60 % ID/g
melanoma (tumor uptake) ([1]; 1 h postinjection): 2.36 ± 0.25 % ID/g
muscle ([1]; 1 h postinjection): 0.38 ± 0.11 % ID/g
spleen ([1]; 1 h postinjection): 3.19 ± 1.05 % ID/g
mel/blood ([1]; 1 h postinjection): 7.49 ± 2.79
mel/liver ([1]; 1 h postinjection): 0.14 ± 0.03
mel/lung ([1]; 1 h postinjection): 1.26 ± 0.57
mel/spleen ([1]; 1 h postinjection): 0.85 ± 0.44
Eyes ([1]; 3 h postinjection): 4.72 ± 0.62 % ID/g
blood ([1]; 3 h postinjection): 0.10 ± 0.02 % ID/g
brain ([1]; 3 h postinjection): 0.01 ± 0.00 % ID/g
heart ([1]; 3 h postinjection): 0.14 ± 0.02 % ID/g
kidney ([1]; 3 h postinjection): 1.02 ± 0.13 % ID/g
liver ([1]; 3 h postinjection): 12.58 ± 1.4 % ID/g
lung ([1]; 3 h postinjection): 0.87 ± 0.35 % ID/g
melanoma (tumor uptake) ([1]; 3 h postinjection): 2.74 ± 0.24 % ID/g
muscle ([1]; 3 h postinjection): 0.09 ± 0.02 % ID/g
spleen ([1]; 3 h postinjection): 3.16 ± 0.46 % ID/g
mel/blood ([1]; 3 h postinjection): 26.65 ± 4.9
mel/liver ([1]; 3 h postinjection): 0.22 ± 0.03
mel/lung ([1]; 3 h postinjection): 3.24 ± 1.79
mel/spleen ([1]; 3 h postinjection): 0.87 ± 0.17
Compound: O=C1C[S][99Tc-]23(=[O])[S]CC[N+]2(CCCN2CCOCC2)CC[N]13 (stereo not shown) [Tc-Z3]
